Assay results from ChEMBL document CHEMBL5465560, “Selectivity Literature for EUbOPEN Chemogenomic Library” (2024).

Tests used:
[1] = biological target: Calcium/calmodulin-dependent protein kinase type 1G (Homo sapiens) (UniProt Q96NX5); test: Selectivity interaction (KinomeScan (DiscoverX)) EUB0000607a CAMK1G; settings: at 10 µM
[2] = system: Mast/stem cell growth factor receptor Kit (Homo sapiens), P10721 [V559D]; settings: at 10 µM
[3] = Selectivity interaction (ActivX KiNativ screen (kinase selectivity in THP-1 cell lysates)) EUB0000639a STLK6; settings: Selectivity number of targets 283, Source Knowledge https://pubmed.ncbi.nlm.nih.gov/28498658/
[4] = biological target: T1, Tyrosine-protein kinase receptor TYRO3 (Homo sapiens) (UniProt Q06418); test: Selectivity interaction (Kinase screening (Nanosyn)) EUB0000604a TYRO3
T1 sequence (whole entry): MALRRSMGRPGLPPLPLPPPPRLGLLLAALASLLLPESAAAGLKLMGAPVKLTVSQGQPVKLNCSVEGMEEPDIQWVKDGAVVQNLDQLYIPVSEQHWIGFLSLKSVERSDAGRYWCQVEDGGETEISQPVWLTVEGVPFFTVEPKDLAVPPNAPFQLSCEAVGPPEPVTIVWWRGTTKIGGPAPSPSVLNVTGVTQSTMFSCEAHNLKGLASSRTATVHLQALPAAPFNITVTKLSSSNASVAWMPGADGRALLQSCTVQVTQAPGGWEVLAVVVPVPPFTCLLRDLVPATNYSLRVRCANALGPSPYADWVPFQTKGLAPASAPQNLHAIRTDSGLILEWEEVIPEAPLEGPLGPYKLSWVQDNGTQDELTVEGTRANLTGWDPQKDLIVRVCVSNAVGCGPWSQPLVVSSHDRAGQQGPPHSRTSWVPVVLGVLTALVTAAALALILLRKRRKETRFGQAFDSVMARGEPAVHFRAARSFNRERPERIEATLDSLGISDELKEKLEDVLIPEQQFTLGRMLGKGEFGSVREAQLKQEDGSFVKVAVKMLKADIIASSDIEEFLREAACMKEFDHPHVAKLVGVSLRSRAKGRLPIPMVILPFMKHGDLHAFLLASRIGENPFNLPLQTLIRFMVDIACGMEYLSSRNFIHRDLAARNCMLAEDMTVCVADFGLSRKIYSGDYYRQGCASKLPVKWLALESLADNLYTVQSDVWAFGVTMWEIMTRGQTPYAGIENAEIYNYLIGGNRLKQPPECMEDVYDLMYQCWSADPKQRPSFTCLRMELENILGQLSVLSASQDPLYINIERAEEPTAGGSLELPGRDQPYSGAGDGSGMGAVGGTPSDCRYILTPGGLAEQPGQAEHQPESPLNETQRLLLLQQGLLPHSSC

[5] = biological target: Tyrosine-protein kinase ABL1 (Homo sapiens, UniProt P00519); test: Selectivity interaction (Ambit KINOMEscan and KiNATiv profiling in Jurkat cells) EUB0000090b ABL1; assay type: cell-based; settings: at 1 µM
Sequence of Tyrosine-protein kinase ABL1 (P00519 whole entry): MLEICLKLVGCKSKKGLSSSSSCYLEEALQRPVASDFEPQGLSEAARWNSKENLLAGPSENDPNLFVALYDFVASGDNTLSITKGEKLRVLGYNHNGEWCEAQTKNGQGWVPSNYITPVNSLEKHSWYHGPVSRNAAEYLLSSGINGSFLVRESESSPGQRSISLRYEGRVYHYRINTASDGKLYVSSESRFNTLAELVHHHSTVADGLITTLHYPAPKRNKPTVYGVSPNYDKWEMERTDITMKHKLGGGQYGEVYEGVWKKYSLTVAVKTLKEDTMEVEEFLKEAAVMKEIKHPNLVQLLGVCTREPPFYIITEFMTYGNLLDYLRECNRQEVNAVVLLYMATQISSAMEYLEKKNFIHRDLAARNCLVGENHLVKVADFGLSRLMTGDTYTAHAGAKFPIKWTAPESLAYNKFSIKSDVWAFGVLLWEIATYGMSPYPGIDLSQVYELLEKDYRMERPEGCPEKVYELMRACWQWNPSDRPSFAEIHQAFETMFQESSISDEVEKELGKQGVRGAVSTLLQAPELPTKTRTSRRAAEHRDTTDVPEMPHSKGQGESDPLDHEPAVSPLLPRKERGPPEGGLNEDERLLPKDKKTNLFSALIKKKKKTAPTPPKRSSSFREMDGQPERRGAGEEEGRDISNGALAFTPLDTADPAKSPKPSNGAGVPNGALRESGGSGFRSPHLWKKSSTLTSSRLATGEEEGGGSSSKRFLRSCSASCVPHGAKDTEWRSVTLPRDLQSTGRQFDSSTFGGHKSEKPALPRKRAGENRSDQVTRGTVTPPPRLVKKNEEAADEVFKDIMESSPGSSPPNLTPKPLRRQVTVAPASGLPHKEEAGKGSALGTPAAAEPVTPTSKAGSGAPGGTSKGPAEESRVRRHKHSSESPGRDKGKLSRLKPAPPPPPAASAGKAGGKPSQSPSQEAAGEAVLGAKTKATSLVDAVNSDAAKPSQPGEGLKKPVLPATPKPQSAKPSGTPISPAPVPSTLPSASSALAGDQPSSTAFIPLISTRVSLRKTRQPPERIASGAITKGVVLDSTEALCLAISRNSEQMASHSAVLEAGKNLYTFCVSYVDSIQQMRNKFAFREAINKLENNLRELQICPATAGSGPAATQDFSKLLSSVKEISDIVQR

[6] = biological target: Receptor-type tyrosine-protein kinase FLT3 (Homo sapiens) (UniProt P36888); test: Selectivity interaction (KinomeScan (DiscoverX)) EUB0001079a FLT3; settings: at 1 µM
Sequence of Receptor-type tyrosine-protein kinase FLT3 (Homo sapiens) (P36888 whole entry): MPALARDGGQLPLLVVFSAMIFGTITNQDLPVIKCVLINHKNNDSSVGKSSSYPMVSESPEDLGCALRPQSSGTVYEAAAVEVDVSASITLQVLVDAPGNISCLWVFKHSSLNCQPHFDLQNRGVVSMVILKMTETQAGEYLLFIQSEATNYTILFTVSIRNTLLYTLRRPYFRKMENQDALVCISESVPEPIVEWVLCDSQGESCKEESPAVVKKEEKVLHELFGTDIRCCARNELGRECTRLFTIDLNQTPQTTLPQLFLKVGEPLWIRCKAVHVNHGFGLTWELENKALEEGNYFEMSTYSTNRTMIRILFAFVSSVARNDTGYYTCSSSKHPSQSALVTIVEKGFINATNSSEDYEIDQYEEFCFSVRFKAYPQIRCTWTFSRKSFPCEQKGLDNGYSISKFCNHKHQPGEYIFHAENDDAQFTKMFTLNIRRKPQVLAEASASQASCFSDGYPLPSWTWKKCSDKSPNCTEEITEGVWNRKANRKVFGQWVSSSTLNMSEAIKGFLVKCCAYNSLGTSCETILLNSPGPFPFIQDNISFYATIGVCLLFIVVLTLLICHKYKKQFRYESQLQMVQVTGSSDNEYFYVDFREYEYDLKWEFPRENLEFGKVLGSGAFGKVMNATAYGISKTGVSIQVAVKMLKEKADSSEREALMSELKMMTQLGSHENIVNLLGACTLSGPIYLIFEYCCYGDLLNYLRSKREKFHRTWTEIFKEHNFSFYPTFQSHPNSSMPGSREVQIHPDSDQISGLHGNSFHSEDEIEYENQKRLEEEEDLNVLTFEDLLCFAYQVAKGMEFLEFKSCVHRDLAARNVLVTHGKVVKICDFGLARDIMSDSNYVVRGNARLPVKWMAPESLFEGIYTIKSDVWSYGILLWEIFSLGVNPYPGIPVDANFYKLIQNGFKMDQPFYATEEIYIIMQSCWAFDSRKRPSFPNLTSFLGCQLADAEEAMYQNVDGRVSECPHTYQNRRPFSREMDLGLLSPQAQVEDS

[7] = biological target: Serine/threonine-protein kinase Nek7 (Homo sapiens) (UniProt Q8TDX7); test: Selectivity interaction (KinomeScan (DiscoverX)) EUB0000229b NEK7; settings: at 10 µM
Sequence of Serine/threonine-protein kinase Nek7 (Homo sapiens) (Q8TDX7 whole entry, looked up): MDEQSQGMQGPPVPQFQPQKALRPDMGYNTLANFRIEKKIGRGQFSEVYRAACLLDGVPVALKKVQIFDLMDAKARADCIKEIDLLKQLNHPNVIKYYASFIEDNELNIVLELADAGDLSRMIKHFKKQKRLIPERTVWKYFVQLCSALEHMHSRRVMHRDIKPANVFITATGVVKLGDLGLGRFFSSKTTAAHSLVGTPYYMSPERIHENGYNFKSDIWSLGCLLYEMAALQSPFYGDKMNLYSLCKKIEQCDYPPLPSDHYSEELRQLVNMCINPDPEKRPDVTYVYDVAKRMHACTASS

[8] = biological target: T2, Ephrin type-B receptor 3 (Homo sapiens) (UniProt P54753); settings: at 10 µM
T2 sequence (whole entry): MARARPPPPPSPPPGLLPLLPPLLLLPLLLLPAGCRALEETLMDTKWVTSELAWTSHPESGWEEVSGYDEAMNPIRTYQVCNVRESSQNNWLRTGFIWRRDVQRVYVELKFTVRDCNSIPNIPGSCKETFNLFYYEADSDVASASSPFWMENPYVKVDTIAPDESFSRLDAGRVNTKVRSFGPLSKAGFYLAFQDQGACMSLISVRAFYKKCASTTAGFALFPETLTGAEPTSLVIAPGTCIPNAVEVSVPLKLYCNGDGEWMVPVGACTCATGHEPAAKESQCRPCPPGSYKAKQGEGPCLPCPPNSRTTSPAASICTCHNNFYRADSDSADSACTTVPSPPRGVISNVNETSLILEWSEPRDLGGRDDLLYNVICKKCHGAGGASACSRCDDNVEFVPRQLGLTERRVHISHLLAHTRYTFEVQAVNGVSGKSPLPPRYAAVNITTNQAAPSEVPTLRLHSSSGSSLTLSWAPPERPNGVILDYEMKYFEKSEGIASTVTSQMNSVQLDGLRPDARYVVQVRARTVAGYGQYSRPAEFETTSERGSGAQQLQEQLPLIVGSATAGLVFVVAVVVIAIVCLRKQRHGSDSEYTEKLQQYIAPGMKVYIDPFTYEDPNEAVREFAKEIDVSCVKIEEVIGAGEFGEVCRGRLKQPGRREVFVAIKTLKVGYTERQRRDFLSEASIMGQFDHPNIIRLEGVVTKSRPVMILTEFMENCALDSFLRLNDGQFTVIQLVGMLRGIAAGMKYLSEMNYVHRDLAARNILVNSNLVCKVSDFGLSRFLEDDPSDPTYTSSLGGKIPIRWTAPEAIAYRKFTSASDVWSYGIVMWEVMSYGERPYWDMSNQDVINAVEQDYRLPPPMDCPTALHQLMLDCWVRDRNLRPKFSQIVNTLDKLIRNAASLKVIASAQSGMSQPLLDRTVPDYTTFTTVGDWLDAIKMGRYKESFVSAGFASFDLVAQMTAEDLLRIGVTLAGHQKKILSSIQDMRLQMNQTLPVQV

Sequence of Calcium/calmodulin-dependent protein kinase type 1G (Homo sapiens) (Q96NX5 whole entry): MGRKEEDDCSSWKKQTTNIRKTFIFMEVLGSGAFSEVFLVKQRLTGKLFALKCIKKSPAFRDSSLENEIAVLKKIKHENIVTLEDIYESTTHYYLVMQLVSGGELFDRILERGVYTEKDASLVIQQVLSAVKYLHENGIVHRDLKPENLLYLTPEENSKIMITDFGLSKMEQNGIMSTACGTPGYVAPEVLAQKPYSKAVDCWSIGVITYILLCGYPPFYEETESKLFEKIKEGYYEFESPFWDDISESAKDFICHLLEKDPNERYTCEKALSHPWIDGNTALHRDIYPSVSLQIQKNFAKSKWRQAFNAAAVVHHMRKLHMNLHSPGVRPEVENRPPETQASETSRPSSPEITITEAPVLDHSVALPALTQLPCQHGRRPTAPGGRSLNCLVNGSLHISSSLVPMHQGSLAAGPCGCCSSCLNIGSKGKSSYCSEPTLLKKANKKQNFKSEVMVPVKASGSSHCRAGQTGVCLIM
Sequence of Mast/stem cell growth factor receptor Kit (Homo sapiens), P10721 [V559D] (P10721 whole entry V559D): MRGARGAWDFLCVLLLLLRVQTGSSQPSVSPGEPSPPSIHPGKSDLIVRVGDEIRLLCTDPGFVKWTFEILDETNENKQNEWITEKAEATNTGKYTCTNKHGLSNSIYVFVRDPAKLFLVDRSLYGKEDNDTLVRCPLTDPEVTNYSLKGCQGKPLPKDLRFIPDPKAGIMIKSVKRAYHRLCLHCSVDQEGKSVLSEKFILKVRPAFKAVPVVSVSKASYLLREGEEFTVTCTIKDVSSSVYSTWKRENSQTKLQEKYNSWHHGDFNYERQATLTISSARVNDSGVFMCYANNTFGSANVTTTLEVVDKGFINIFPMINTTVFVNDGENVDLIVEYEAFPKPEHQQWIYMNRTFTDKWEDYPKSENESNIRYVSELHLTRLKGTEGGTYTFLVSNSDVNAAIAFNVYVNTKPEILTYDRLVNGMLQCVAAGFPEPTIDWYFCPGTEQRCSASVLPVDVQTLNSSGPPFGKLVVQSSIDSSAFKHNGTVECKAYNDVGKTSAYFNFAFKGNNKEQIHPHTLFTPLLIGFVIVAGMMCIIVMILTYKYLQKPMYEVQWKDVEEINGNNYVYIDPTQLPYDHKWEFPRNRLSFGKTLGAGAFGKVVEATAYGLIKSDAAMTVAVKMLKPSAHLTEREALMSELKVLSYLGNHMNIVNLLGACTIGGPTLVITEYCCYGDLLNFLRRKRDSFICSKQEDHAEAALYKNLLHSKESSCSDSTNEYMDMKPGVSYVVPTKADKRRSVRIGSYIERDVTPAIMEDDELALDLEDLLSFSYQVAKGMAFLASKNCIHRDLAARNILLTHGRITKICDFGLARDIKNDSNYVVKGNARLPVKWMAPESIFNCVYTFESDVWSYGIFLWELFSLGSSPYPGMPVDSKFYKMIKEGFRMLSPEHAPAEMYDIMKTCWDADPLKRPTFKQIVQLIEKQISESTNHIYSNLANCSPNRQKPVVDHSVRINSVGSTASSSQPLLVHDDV

CNC(=O)Nc1ccc(-c2nc(N3CC4CCC(C3)O4)c3cnn(C4CCC5(CC4)OCCO5)c3n2)cc1
% of control [1]: 100%

CCN(CC)CCCCNc1ncc2cc(-c3cc(OC)cc(OC)c3)c(NC(=O)NC(C)(C)C)nc2n1
% of control [2]: 100%

CC[C@@H]1[C@H](F)C(=O)N[C@@H]1COc1nccc2cc(C(N)=O)c(OC)cc12 [ZIMLOVISERTIB]
% of inhibition ([3]; Selectivity number of off-targets 0, at 0.01 µM): 4.1%
% of inhibition ([3]; Selectivity number of off-targets 0, at 0.04 µM): 23.1%
% of inhibition ([3]; Selectivity number of off-targets 0, at 0.2 µM): 11.5%
% of inhibition ([3]; Selectivity number of off-targets 1, at 1 µM): 7.9%
% of inhibition ([3]; Selectivity number of off-targets 5, at 5 µM): 11.7%

Cc1cnc(Nc2ccc(F)cc2Cl)nc1-c1c[nH]c(C(=O)N[C@H](CO)c2cccc(Cl)c2)c1
% of inhibition [4]: 0%

CN(C)C/C=C/C(=O)Nc1ccc(C(=O)N2CCCC(Nc3ncc(Cl)c(-c4c[nH]c5ccccc45)n3)C2)cc1 (configuration not stated)
% of control [5]: 97%

Nc1cnc(N2CCc3cc(S(=O)(=O)Nc4c(F)cc(Cl)cc4F)cc(N4CCCC4=O)c32)nc1 [TP-020n]
% of control [6]: 91%

COc1cc(N(C)c2ccnc3ccc(C(F)(F)F)cc23)cc(OC)c1OC
% binding [7]: 100%

Cc1cc([C@@H](C)Nc2ccccc2C(=O)O)c2nc(N3CCOCC3)cc(=O)n2c1 [AZD-6482]
% of control [8]: 100%
